Assay results as given in ChEMBL document CHEMBL3046524, “Synthesis and biological evaluation of N 1,N 2-bis-[4-(t-amino)-2-butynyl]phthalamides as oxotremorine and acetylcholine antagonists” (Med Chem Res, 2013).
Calls of active or inactive are those of the source. The calls are words filed in the database; no cut-off is given here.

Experiments:
Ileum [1] = assay: Ionotropic activity in Cavia porcellus (guinea pig) ileum assessed as inhibition of acetylcholine-induced contraction after 15 min by physiographic analysis; assay type: functional, tissue-based; conditions: 0.25 h, read-out: pA2 (converted)
Ileum [2] = assay: Ionotropic activity in Cavia porcellus (guinea pig) ileum assessed as concentration required to inhibit acetylcholine-induced contraction after 15 min by physiographic analysis; assay type: functional
Mus musculus [3] = assay: Antitremor activity in ip dosed Mus musculus (mouse) assessed as inhibition of oxotremorine-induced tremor effect administered 15 to 20 min prior to oxotremorine challenge measured 15 to 20 min post oxotremorine challenge; assay type: functional, organism-based
Mus musculus [4] = assay: Antitremor activity in ip dosed Mus musculus (mouse) assessed as concentration required to inhibit oxotremorine-induced tremor effect administered 15 to 20 min prior to oxotremorine challenge measured 15 to 20 min post oxotremorine challenge; assay type: functional

In the case of CC1CCCC(C)N1CC#CCNC(=O)c1ccccc1C(=O)NCC#CCN1C(C)CCCC1C (stereo not given), the Kb (Ileum [1]) is reported as 1.58 µM, the INH (Ileum [2]) is reported as 3 ×10⁻⁶ mol/L and the inhibition (Mus musculus [3]) is reported as “inactive”.

With CC1CCCCN1CC#CCNC(=O)c1ccccc1C(=O)NCC#CCN1CCCCC1C (stereo not given) the Kb (Ileum [1]) was 2 µM and the INH (Ileum [2]) was 1.2 ×10⁻⁶ mol/L.

With O=C(NCC#CCN1CCCCC1)c1ccccc1C(=O)NCC#CCN1CCCCC1 the Kb (Ileum [1]) was 2.51 µM, the INH (Ileum [2]) was 1.6 ×10⁻⁶ mol/L and the INH (Mus musculus [4]) was 8 µmol/kg.

In the case of CC1CCCC(C)N1CC#CCN1C(=O)c2ccccc2C1=O (stereo not given), the Kb (Ileum [1]) is reported as 2 µM, the INH (Ileum [2]) is reported as 2 ×10⁻⁶ mol/L and the inhibition (Mus musculus [3]) is reported as “inactive”.

O=C(NCC#CCN1CCCCCCC1)c1ccccc1C(=O)NCC#CCN1CCCCCCC1 gave a Kb (Ileum [1]) of 1.26 µM and an INH (Ileum [2]) of 5 ×10⁻⁶ mol/L.

CN1[C@@H]2CC[C@H]1C[C@@H](OC(=O)C(CO)c1ccccc1)C2 (stereo not given in full) [ATROPINE] gave a Kb (Ileum [1]) of 0.00398 µM, an INH (Ileum [2]) of 3.7 ×10⁻⁹ mol/L and an INH (Mus musculus [4]) of 2.8 µmol/kg.

O=C1c2ccccc2C(=O)N1CC#CCN1CCCCCCC1 was tested, and the Kb (Ileum [1]) was 0.794 µM, the INH (Ileum [2]) was 8 ×10⁻⁷ mol/L and the INH (Mus musculus [4]) was 2.4 µmol/kg.

In the case of CC1CCCCN1CC#CCN1C(=O)c2ccccc2C1=O (stereo not given), the Kb (Ileum [1]) is reported as 1.26 µM, the INH (Ileum [2]) is reported as 1.2 ×10⁻⁶ mol/L and the INH (Mus musculus [4]) is reported as 9.6 µmol/kg.

O=C1c2ccccc2C(=O)N1CC#CCN1CCCCC1 was tested, and the Kb (Ileum [1]) was 1.58 µM, the INH (Ileum [2]) was 1.6 ×10⁻⁶ mol/L and the INH (Mus musculus [4]) was 7.6 µmol/kg.
